Test results reported in patent US20110028518A1, “DEXLANSOPRAZOLE PROCESS AND POLYMORPHS” (DR. REDDY'S LABORATORIES LTD., priority 2008, published 2011).

Test: Storage stability studies (Example 27): appearance, PXRD, HPLC purity, impurities and chiral purity
Type: physicochemical
Conditions: for Chiral Purity / Highest Impurity / Purity / Sulfide / Sulfone: HPLC
Text: A high performance liquid chromatography (HPLC) method for measuring the chemical purity of dexlansoprazole or a compound of formula (VII) of the present application, and for determination of their corresponding impurities, involves the use of a YMC-PAK ODS-A 100×4.6, 3 μm or equivalent column.
A high performance liquid chromatography method useful for measuring the enantiomeric purity of dexlansoprazole or a compound of formula (VII) of the present application involves the use of a Chiralpak-IC, 250×4.6 mm or equivalent column.
Products from certain of the above examples and a crystalline dexlansoprazole, prepared according to Example 2 of U.S. Pat. No. 6,462,058, were tested for their storage stabilities. The samples were stored in tied clear polyethylene bags that were placed in sealed black polyethylene bags along with a silica gel desiccant pouch filled with nitrogen, and finally the black bags were placed into triple laminated foil bags along with a silica gel pouch and then sealed and stored in HDPE drum packages under the conditions noted in the following results tables. Samples were analyzed before storage, at intervals during storage, and after storage.
Samples were analyzed by HPLC for chemical purity, for:
a “sulfide” impurity, having a chemical name 2-[[{4-(2,2,2-trifluoroethoxy)-3-methylpyridine-2-yl}methyl]thio]-1H-benzimidazole and the following structure;
a “sulfone” impurity, having a chemical name 2-[[{4-(2,2,2-trifluoroethoxy)-3-methylpyridine-2-yl}methyl]sulfonyl]-1H-benzimidazole and the following structure;
and for chiral purity. Also given in the tables is the concentration of the highest unidentified impurity, as determined by HPLC, and the PXRD analysis result. All percentages given below are expressed on a weight basis.

[1] = Initial Analysis, before storage

Cc1c(OCC(F)(F)F)ccnc1C[S@@+]([O-])c1nc2ccccc2[nH]1 [Crystalline Drug, dexlansoprazole]
Appearance (After 1 Week at 2-8° C.): Cream color | PXRD (After 1 Week at 2-8° C.): Crystalline | Chiral Purity (After 1 Week at 2-8° C.): 88.02% | Highest Impurity (After 1 Week at 2-8° C.): 0.14% | Purity (After 1 Week at 2-8° C.): 95.39% | Sulfide (After 1 Week at 2-8° C.): 2.48% | Sulfone (After 1 Week at 2-8° C.): 1.68% | Appearance (After 1 Week at 25-35° C.): Cream color | PXRD (After 1 Week at 25-35° C.): Crystalline | Chiral Purity (After 1 Week at 25-35° C.): 87.8% | Highest Impurity (After 1 Week at 25-35° C.): 0.14% | Purity (After 1 Week at 25-35° C.): 95.28% | Sulfide (After 1 Week at 25-35° C.): 2.48% | Sulfone (After 1 Week at 25-35° C.): 1.77% | Appearance (After 2 Weeks at 2-8° C.): Cream color | PXRD (After 2 Weeks at 2-8° C.): Crystalline | Chiral Purity (After 2 Weeks at 2-8° C.): 88.49% | Highest Impurity (After 2 Weeks at 2-8° C.): 0.13% | Purity (After 2 Weeks at 2-8° C.): 95.19% | Sulfide (After 2 Weeks at 2-8° C.): 2.36% | Sulfone (After 2 Weeks at 2-8° C.): 1.62% | Appearance (After 2 Weeks at 25-35° C.): Cream color | PXRD (After 2 Weeks at 25-35° C.): Crystalline | Chiral Purity (After 2 Weeks at 25-35° C.): 88.34% | Highest Impurity (After 2 Weeks at 25-35° C.): 0.13% | Purity (After 2 Weeks at 25-35° C.): 95.19% | Sulfide (After 2 Weeks at 25-35° C.): 2.36% | Sulfone (After 2 Weeks at 25-35° C.): 1.62% | Appearance (After 3 Weeks at 2-8° C.): Cream color | PXRD (After 3 Weeks at 2-8° C.): Crystalline | Chiral Purity (After 3 Weeks at 2-8° C.): 88.34% | Highest Impurity (After 3 Weeks at 2-8° C.): 0.14% | Purity (After 3 Weeks at 2-8° C.): 95.65% | Sulfide (After 3 Weeks at 2-8° C.): 2.31% | Sulfone (After 3 Weeks at 2-8° C.): 1.61% | Appearance (After 3 Weeks at 25-35° C.): Cream color | PXRD (After 3 Weeks at 25-35° C.): Crystalline | Chiral Purity (After 3 Weeks at 25-35° C.): 88.27% | Highest Impurity (After 3 Weeks at 25-35° C.): 0.13% | Purity (After 3 Weeks at 25-35° C.): 95.4% | Sulfide (After 3 Weeks at 25-35° C.): 2.39% | Sulfone (After 3 Weeks at 25-35° C.): 1.65% | Appearance [1]: Cream color | PXRD [1]: Crystalline | Chiral Purity [1]: 88.13% | Highest Impurity [1]: 0.15% | Purity [1]: 95.4% | Sulfide [1]: 2.41% | Sulfone [1]: 1.66%
